Activity calls are given as the source filed them. The calls are words filed in the database; no cut-off is given here.
Experiments:
[1] = Upregulation of efflux pump regulator promoter activity in Klebsiella pneumoniae assessed as increase in beta-galactosidase activity at 3 to 50 ug/ml by LacZ based OD600 analysis; format: ADME; conditions: dose 3-50 µg/ml
[2] = tested on: Klebsiella pneumoniae; assay: Hormesis activity against Klebsiella pneumonia assessed as promotion of delayed bacterial growth at 25 to 50 ug/ml measured for 24 hrs in presence of 1 ug/ml tetracycline by OD600 based analysis; format: organism-based; conditions: in vivo, dose 25-50 µg/ml
[3] = tested on: Klebsiella pneumoniae; assay: Hormesis activity against Klebsiella pneumonia assessed as inhibition of bacterial growth at 25 to 50 ug/ml measured for 24 hrs in presence of 2 ug/ml tetracycline by OD600 based analysis; format: functional, organism-based; conditions: dose 25-50 µg/ml
[4] = tested on: Klebsiella pneumoniae; assay: Hormesis activity against Klebsiella pneumonia assessed as promotion of bacterial growth at 3 to 50 ug/ml measured for 24 hrs in presence of 4 ug/ml tetracycline by OD600 based analysis; format: organism-based; conditions: in vivo, dose 3-50 µg/ml
[5] = tested on: Enterobacter cloacae; assay: Hormesis activity against Enterobacter cloacae assessed as promotion of bacterial growth by measuring prolonged logarithmic growth phase at 3 to 6 ug/ml measured for 24 hrs by OD600 based analysis; format: organism-based; conditions: in vivo, dose 3-6 µg/ml
[6] = tested on: Enterobacter cloacae; assay: Hormesis activity against Enterobacter cloacae assessed as promotion of bacterial growth up to 25 ug/ml measured for 24 hrs in presence of 8 ug/ml tetracycline by OD600 based analysis; format: organism-based; conditions: in vivo, dose <=25 µg/ml
[7] = tested on: Acinetobacter baumannii; assay: Hormesis activity against Acinetobacter baumannii assessed as promotion of bacterial growth at 3 to 50 ug/ml measured for 24 hrs in presence of efflux pump inhibitor, CCCP and 80 to 120 ug/ml tetracycline by OD600 based analysis; format: ADME, organism-based; conditions: in vivo, dose 3-50 µg/ml
[8] = tested on: Klebsiella pneumoniae; assay: Hormesis activity against Klebsiella pneumoniae assessed as increase in antibiotic MIC by measuring tetracycline MIC at 3 ug/ml incubated for 12 hrs by OD600 based analysis (reference value: 6 ug/ml); format: ADME, organism-based; conditions: in vivo, dose 3 µg/ml
[9] = tested on: Klebsiella pneumoniae; assay: Hormesis activity against overnight compound-treated Klebsiella pneumoniae assessed as increase in antibiotic MIC by measuring ciprofloxacin MIC at 3 ug/ml incubated for 12 hrs by OD600 based analysis (reference value: 0.0390625 ug/ml); format: ADME, organism-based; conditions: in vivo, dose 3 µg/ml
[10] = tested on: Klebsiella pneumoniae; assay: Hormesis activity against overnight compound-treated Klebsiella pneumoniae assessed as increase in antibiotic MIC by measuring hygromycinMIC at 3 ug/ml incubated for 12 hrs by OD600 based analysis (reference value: 12.5 ug/ml); format: ADME, organism-based; conditions: in vivo, dose 3 µg/ml
[11] = tested on: Klebsiella pneumoniae; assay: Hormesis activity against overnight compound-treated Klebsiella pneumoniae assessed as increase in antibiotic MIC by measuring ampicillin MIC at 3 ug/ml incubated for 12 hrs by OD600 based analysis (reference value: 12.5 ug/ml); format: ADME, organism-based; conditions: in vivo, dose 3 µg/ml
[12] = tested on: Klebsiella pneumoniae; assay: Hormesis activity against overnight compound-treated Klebsiella pneumoniae assessed as increase in antibiotic MIC by measuring meropenem MIC at 3 ug/ml incubated for 12 hrs by OD600 based analysis (reference value: 0.39625 ug/ml); format: ADME, organism-based; conditions: in vivo, dose 3 µg/ml
[13] = tested on: Klebsiella pneumoniae; assay: Hormesis activity against Klebsiella pneumoniae deficient in KmrA gene expression assessed as increase in antibiotic MIC by measuring ciprofloxacin MIC at 3 ug/ml incubated for 12 hrs by OD600 based analysis (reference value: 0.0390625 ug/ml); format: ADME, organism-based; conditions: in vivo, dose 3 µg/ml
[14] = tested on: Klebsiella pneumoniae; assay: Hormesis activity against Klebsiella pneumoniae deficient in KmrA gene expression assessed as increase in antibiotic MIC by measuring meropenem MIC at 3 ug/ml incubated for 12 hrs by OD600 based analysis (reference value: 0.39625 ug/ml); format: ADME, organism-based; conditions: in vivo, dose 3 µg/ml
[15] = tested on: Klebsiella pneumoniae; assay: Hormesis activity against overnight compound-treated Klebsiella pneumoniae deficient in KmrA gene expression assessed as increase in antibiotic MIC by measuring tetracycline MIC at 3 ug/ml incubated for 12 hrs by OD600 based analysis (reference value: 6 ug/ml); format: ADME, organism-based; conditions: in vivo, dose 3 µg/ml
[16] = tested on: Klebsiella pneumoniae; assay: Hormesis activity against overnight compound-treated Klebsiella pneumoniae deficient in KmrA gene expression assessed as increase in antibiotic MIC by measuring streptomycin MIC at 3 ug/ml incubated for 12 hrs by OD600 based analysis (reference value: 0.78125 ug/ml); format: ADME, organism-based; conditions: in vivo, dose 3 µg/ml
[17] = tested on: Klebsiella pneumoniae; assay: Hormesis activity against overnight compound-treated Klebsiella pneumoniae deficient in KmrA gene expression assessed as increase in antibiotic MIC by measuring ciprofloxacin MIC at 3 ug/ml incubated for 12 hrs by OD600 based analysis (reference value: 0.0390625 ug/ml); format: ADME, organism-based; conditions: in vivo, dose 3 µg/ml
[18] = tested on: Enterobacter cloacae; assay: Hormesis activity against Enterobacter cloacae assessed as increase in antibiotic MIC by measuring streptomycin MIC at 3 ug/ml incubated for 12 hrs by OD600 based analysis (reference value: 12.5 ug/ml); format: ADME, organism-based; conditions: in vivo, dose 3 µg/ml
[19] = tested on: Enterobacter cloacae; assay: Hormesis activity against Enterobacter cloacae assessed as increase in antibiotic MIC by measuring atreonamMIC at 3 ug/ml incubated for 12 hrs by OD600 based analysis (reference value: 3.125 ug/ml); format: ADME, organism-based; conditions: in vivo, dose 3 µg/ml
[20] = tested on: Acinetobacter baumannii; assay: Hormesis activity against Acinetobacter baumannii assessed as increase in antibiotic MIC by measuring azithromycin MIC at 3 ug/ml incubated for 12 hrs by OD600 based analysis (reference value: 200 ug/ml); format: ADME, organism-based; conditions: in vivo, dose 3 µg/ml
[21] = tested on: Acinetobacter baumannii; assay: Hormesis activity against Acinetobacter baumannii assessed as increase in antibiotic MIC by measuring ciprofloxacin MIC at 3 ug/ml incubated for 12 hrs by OD600 based analysis (reference value: 0.3125 ug/ml); format: ADME, organism-based; conditions: in vivo, dose 3 µg/ml
[22] = tested on: Acinetobacter baumannii; assay: Hormesis activity against Acinetobacter baumannii assessed as increase in antibiotic MIC by measuring meropenem MIC at 3 ug/ml incubated for 12 hrs by OD600 based analysis (reference value: 0.625 ug/ml); format: ADME, organism-based; conditions: in vivo, dose 3 µg/ml
[23] = tested on: Acinetobacter baumannii; assay: Hormesis activity against overnight-compound treated Acinetobacter baumannii assessed as increase in antibiotic MIC by measuring hygromycinMIC at 3 ug/ml incubated for 12 hrs by OD600 based analysis (reference value: 125 ug/ml); format: ADME, organism-based; conditions: in vivo, dose 3 µg/ml
[24] = tested on: Acinetobacter baumannii; assay: Hormesis activity against overnight-compound treated Acinetobacter baumannii assessed as increase in antibiotic MIC by measuring ampicillin MIC at 3 ug/ml incubated for 12 hrs by OD600 based analysis (reference value: 100 ug/ml); format: ADME, organism-based; conditions: in vivo, dose 3 µg/ml
[25] = tested on: Acinetobacter baumannii; assay: Hormesis activity against overnight-compound treated Acinetobacter baumannii assessed as increase in antibiotic MIC by measuring cefotaxime MIC at 3 ug/ml incubated for 12 hrs by OD600 based analysis (reference value: 12.5 ug/ml); format: ADME, organism-based; conditions: in vivo, dose 3 µg/ml

MIC [8]: 6 µg/mL
MIC [9]: 0.1562 µg/mL
MIC [10]: 12.5 µg/mL
MIC [11]: 12.5 µg/mL
MIC [12]: 0.3962 µg/mL
MIC [13]: 0.03906 µg/mL
MIC [14]: 0.3962 µg/mL
MIC [15]: 6 µg/mL
MIC [16]: 1.5625 µg/mL
MIC [17]: 0.07812 µg/mL
MIC [18]: 12.5 µg/mL
MIC [19]: 3.125 µg/mL
MIC [20]: 200 µg/mL
MIC [21]: 0.3125 µg/mL
MIC [22]: 0.625 µg/mL
MIC [23]: 250 µg/mL
MIC [24]: 200 µg/mL
MIC [25]: 12.5 µg/mL
Structure (SMILES): COc1ccc2cc3[n+](cc2c1OC)CCc1cc2c(cc1-3)OCO2 [BERBERINE]
Activity [1]: Toxic
Activity [2]: Non-Toxic
Activity [3]: Active
Activity [4]: Toxic
Activity [5]: Toxic
Activity [6]: Toxic
Activity [7]: Non-Toxic
